From patent US20220402882A1, “HERBICIDAL COMPOUNDS” (SYNGENTA CROP PROTECTION AG, priority 2019, published 2022)

Assays:
Type in all cases: in vivo
Conditions in all cases: 125 g/h, evaluated after 13 days
[1] = tested on: Abutilon theophrasti (ABUTH); assay: Post-emergence glasshouse herbicide test
How it was run: (§1)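 Scores are percentage plant damage 13 days after treatment, binned 5=80-100%, 4=60-79%, 3=40-59%, 2=20-39%, 1=0-19%. Compounds were sprayed at 125 g/h unless otherwise indicated, either one day after sowing or on 8-day-old plants, under 24/16 °C, 14 h light and 65% humidity.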

[2] = tested on: Ipomoea hederacea (IPOHE); assay: Post-emergence glasshouse herbicide test
How it was run: as §1

[3] = tested on: Amaranthus retoflexus (AMARE); assay: Post-emergence glasshouse herbicide test
How it was run: as §1

[4] = tested on: Echinochloa crus-galli (ECHCG); assay: Post-emergence glasshouse herbicide test
How it was run: as §1

[5] = tested on: Setaria faberi (SETFA); assay: Post-emergence glasshouse herbicide test
How it was run: as §1

[6] = tested on: Abutilon theophrasti (ABUTH); assay: Pre-emergence glasshouse herbicide test
How it was run: as §1

[7] = tested on: Ipomoea hederacea (IPOHE); assay: Pre-emergence glasshouse herbicide test
How it was run: as §1

[8] = tested on: Amaranthus retoflexus (AMARE); assay: Pre-emergence glasshouse herbicide test
How it was run: as §1

[9] = tested on: Echinochloa crus-galli (ECHCG); assay: Pre-emergence glasshouse herbicide test
How it was run: as §1

[10] = tested on: Setaria faberi (SETFA); assay: Pre-emergence glasshouse herbicide test
How it was run: as §1

Row | SMILES | percentage damage caused to the plant, ABUTH [1] | percentage damage caused to the plant, IPOHE [2] | percentage damage caused to the plant, AMARE [3] | percentage damage caused to the plant, ECHCG [4] | percentage damage caused to the plant, SETFA [5] | percentage damage caused to the plant, ABUTH [6] | percentage damage caused to the plant, IPOHE [7] | percentage damage caused to the plant, AMARE [8] | percentage damage caused to the plant, ECHCG [9] | percentage damage caused to the plant, SETFA [10]
1 | CCSc1c(OC(F)F)ccc(C(=O)Nc2nnnn2C)c1C [Compound 1.028] | 5 (5=80-100%) | 5 (5=80-100%) | 5 (5=80-100%) | 5 (5=80-100%) | 5 (5=80-100%) | 5 (5=80-100%) | 3 (3=40-59%) | 5 (5=80-100%) | 5 (5=80-100%) | 5 (5=80-100%)
2 | CCn1nnnc1NC(=O)c1ccc(OC(F)F)c(S(=O)(=O)CC(C)C)c1Cl [Compound 1.053] | 5 (5=80-100%) | 5 (5=80-100%) | 5 (5=80-100%) | 5 (5=80-100%) | 5 (5=80-100%) | 5 (5=80-100%) | 4 (4=60-79%) | 5 (5=80-100%) | 5 (5=80-100%) | 5 (5=80-100%)
3 | CCS(=O)(=O)c1c(OC(F)F)ccc(C(=O)Nc2nnc(C)o2)c1Cl [Compound 2.013] | 5 (5=80-100%) | 4 (4=60-79%) | 5 (5=80-100%) | 5 (5=80-100%) | 5 (5=80-100%) | 5 (5=80-100%) | 4 (4=60-79%) | 5 (5=80-100%) | 5 (5=80-100%) | 5 (5=80-100%)
4 | CCS(=O)(=O)c1cc(C(=O)Nc2nnc(C)o2)ccc1OC(F)(F)F [Compound 2.009] | 4 (4=60-79%) | 4 (4=60-79%) | 5 (5=80-100%) | 5 (5=80-100%) | 5 (5=80-100%) | 5 (5=80-100%) | 2 (2=20-39%) | 5 (5=80-100%) | 5 (5=80-100%) | 5 (5=80-100%)
5 | CCCS(=O)(=O)c1c(OC(F)F)ccc(C(=O)Nc2nnnn2C)c1Cl [Compound 1.050] | 5 (5=80-100%) | 4 (4=60-79%) | 5 (5=80-100%) | 5 (5=80-100%) | 5 (5=80-100%) | 5 (5=80-100%) | 3 (3=40-59%) | 5 (5=80-100%) | 5 (5=80-100%) | 5 (5=80-100%)
6 | CCS(=O)(=O)c1c(OC(F)(F)F)ccc(C(=O)Nc2nnc(C)o2)c1C [Compound 2.011] | 5 (5=80-100%) | 4 (4=60-79%) | 5 (5=80-100%) | 5 (5=80-100%) | 5 (5=80-100%) | 5 (5=80-100%) | 5 (5=80-100%) | 5 (5=80-100%) | 5 (5=80-100%) | 5 (5=80-100%)
7 | CCS(=O)(=O)c1c(CC(F)(F)F)ccc(C(=O)Nc2nnnn2C)c1Cl [Compound 1.022] | 5 (5=80-100%) | 5 (5=80-100%) | 4 (4=60-79%) | 5 (5=80-100%) | 5 (5=80-100%) | 5 (5=80-100%) | 5 (5=80-100%) | 5 (5=80-100%) | 5 (5=80-100%) | 5 (5=80-100%)
8 | CCSc1c(OC(F)(F)F)ccc(C(=O)Nc2nnnn2C)c1C [Compound 1.030] | 5 (5=80-100%) | 5 (5=80-100%) | 5 (5=80-100%) | 5 (5=80-100%) | 5 (5=80-100%) | 5 (5=80-100%) | 3 (3=40-59%) | 5 (5=80-100%) | 5 (5=80-100%) | 5 (5=80-100%)
9 | CCSc1c(OC(F)(F)F)ccc(C(=O)Nc2nnnn2C)c1Cl [Compound 1.021] | 5 (5=80-100%) | 5 (5=80-100%) | 4 (4=60-79%) | 5 (5=80-100%) | 5 (5=80-100%) | 4 (4=60-79%) | 3 (3=40-59%) | 5 (5=80-100%) | 5 (5=80-100%) | 5 (5=80-100%)
10 | CC[S+]([O-])c1c(OC(F)F)ccc(C(=O)Nc2nnnn2C)c1Cl (stereo not drawn) [Compound 1.026] | 5 (5=80-100%) | 5 (5=80-100%) | 5 (5=80-100%) | 5 (5=80-100%) | 5 (5=80-100%) | 5 (5=80-100%) | 5 (5=80-100%) | 5 (5=80-100%) | 5 (5=80-100%) | 5 (5=80-100%)
11 | CC(C)S(=O)(=O)c1c(OC(F)F)ccc(C(=O)Nc2nnnn2C)c1Cl [Compound 1.054] | 4 (4=60-79%) | 4 (4=60-79%) | 4 (4=60-79%) | 4 (4=60-79%) | 4 (4=60-79%) | 5 (5=80-100%) | 4 (4=60-79%) | 5 (5=80-100%) | 5 (5=80-100%) | 5 (5=80-100%)
12 | CCSc1c(OCC(F)(F)F)ccc(C(=O)Nc2nnnn2C)c1C [Compound 1.038] | 5 (5=80-100%) | 4 (4=60-79%) | 5 (5=80-100%) | 5 (5=80-100%) | 5 (5=80-100%) | 4 (4=60-79%) | 2 (2=20-39%) | 5 (5=80-100%) | 2 (2=20-39%) | 2 (2=20-39%)
